Test results published in patent US8673968B2, “Progesterone antagonists” (Evestra, Inc., priority 2009, dated 2014).

Legend:
[1] = target: T1, glucocorticoid receptor-LBD (Homo sapiens, UniProt P04150); test: Glucocorticoid Antagonist Screen activated by control agonist Dexamethasone (GENEBLAZER beta-lactamase reporter); type: cell-based; conditions: glucocorticoid receptor-LBD-UAS-bla HEK 293T cells, read-out: Glucocorticoid Antagonist Inhibition IC50
T1 construct: host or cells: HEK 293T (glucocorticoid receptor-LBD-UAS-bla)
T1 sequence (P04150 524-758 limits assumed): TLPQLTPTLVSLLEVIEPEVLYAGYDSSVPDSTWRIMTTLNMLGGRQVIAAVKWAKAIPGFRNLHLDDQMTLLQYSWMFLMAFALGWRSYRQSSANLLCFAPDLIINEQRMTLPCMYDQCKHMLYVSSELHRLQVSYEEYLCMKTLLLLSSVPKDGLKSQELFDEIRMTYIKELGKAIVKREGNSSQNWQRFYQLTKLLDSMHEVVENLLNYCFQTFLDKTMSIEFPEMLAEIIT
Protocol: (§1) Determination of the agonist/antagonist nature of the test compounds was carried out using Invitrogen's SELECTSCREEN, a cell-based nuclear receptor profiling service which uses GENEBLAZER a beta-lactamase reporter technology. This assay uses a Beta-lactamase cDNA under transcriptional control of an Upstream Activator Sequence (UAS). The UAS is activated by the GAL4 transcription factor DNA binding domain (DBD), which is expressed as a fusion protein with the target receptor ligand binding domain (LBD). Upon ligand binding, the GAL4(DBD)-NR(LDB) binds to the UAS, which controls transcription of Beta-lactamase. Beta-lactamase cleaves a special engineered fluorescent substrate which results in a change in the measured fluorescence wavelength.

[2] = target: T2, progesterone receptor-LBD (Homo sapiens, UniProt P06401); test: Progesterone Agonist screen (SELECTSCREEN GENEBLAZER beta-lactamase reporter); type: cell-based; conditions: progesterone receptor-LBD-UAS-bla HEK 293T cells; read-out: Progesterone Agonist Activation IC50
T2 construct: host or cells: HEK 293T (progesterone receptor-LBD-UAS-bla)
T2 sequence (P06401 679-913 limits assumed): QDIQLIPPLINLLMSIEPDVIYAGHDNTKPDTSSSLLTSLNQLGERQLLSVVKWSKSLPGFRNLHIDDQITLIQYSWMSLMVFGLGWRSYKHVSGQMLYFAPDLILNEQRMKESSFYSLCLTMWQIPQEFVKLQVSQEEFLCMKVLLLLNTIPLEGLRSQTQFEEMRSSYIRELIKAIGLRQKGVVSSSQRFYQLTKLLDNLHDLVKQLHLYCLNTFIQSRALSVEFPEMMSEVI
Protocol: as §1
The plate is incubated for 16-24 hours at 37° C./5% CO2 in a humidified incubator. […] The plate is then read on a fluorescence plate reader (Tecan Safire).

[3] = target: T2, progesterone receptor-LBD; test: Progesterone Antagonist Screen, activated by control agonist R5020 (GENEBLAZER beta-lactamase reporter); type: cell-based; conditions: progesterone receptor-LBD-UAS-bla HEK 293T cells; control agonist R5020 at EC80; read-out: Progesterone Antagonist Inhibition IC50
Protocol: as §1
The generalized protocol used for the Progesterone Antagonist Screen, activated by control Agonist R5020 is as follows:
32 μL of cell suspension is added to the wells which is then pre-incubated at 37 C/5% CO2 in a humidified incubator with test compounds and control antagonist titration for 30 minutes. 4 μL of a 10× control agonist (see above) at the predetermined EC80 concentration is added to wells containing the control antagonist or test compounds. The plate is incubated for 16-24 hours at 37 C/5% CO2 in a humidified incubator. 8 μl of 1 μM Substrate Loading Solution is added to each well and the plate is incubated for 2 hours at room temperature. The plate is then read on a fluorescence plate reader (Tecan Safire).

[4] = system: progesterone receptor positive breast cancer; conditions: rat model, recent study; cited from earlier work

SMILES | IC50 [3] [nM] | other results
C=C(C)c1ccc(C2CC3(C)C(CCC34OCCC4=C(F)F)C3CCC4=CC(=O)CCC4=C23)cc1 (stereo not drawn) [Compound 1d, 21,21-difluoro-11β-(4′-isopropenylphenyl)-17,23-epoxy-19,24-dinor-17α-chola-4,9,20-triene] | 0.413 | 
CC12CC(c3ccc(-c4ccoc4)cc3)C3=C4CCC(=O)C=C4CCC3C1CCC21OCCC1=C(F)F (stereo not shown) [Compound 1f] | 0.864 | 
COCC(=O)[C@@]1(OC(C)=O)CC[C@H]2[C@@H]3CCC4=CC(=O)CCC4=C3[C@@H](c3ccc(N(C)C)cc3)C[C@@]21C [PROELLEX] |  | development of new tumors [4]: decrease in the development of new tumors; tumor size [4]: regression of tumor size
CC(=O)c1ccc([C@H]2C[C@@]3(C)[C@@H](CC[C@@]3(O)C(F)(F)C(F)(F)F)[C@@H]3CCC4=CC(=O)CCC4=C32)cc1 [ZK 230211, Lonaprisan, reference compound] | 0.798 | IC50 [1]: > 10 nM; IC50 [2]: > 10 nM

Further lines, with some results ahead:

IC50 [3] [nM] | SMILES | other results
0.265 | CC(=O)c1ccc(C2CC3(C)C(CCC34OCCC4=C(F)F)C3CCC4=CC(=O)CCC4=C23)cc1 (stereo not drawn) [Compound 1a, 21,21-difluoro-11β-(4′-acetyl)phenyl-17,23-epoxy-19,24-dinor-17α-chola-4,9,20-triene] | IC50 [1]: > 10 nM; IC50 [2]: > 10 nM
0.178 | CN(C)c1ccc(C2CC3(C)C(CCC34OCCC4=C(F)F)C3CCC4=CC(=O)CCC4=C23)cc1 (stereo not drawn) [Compound 1b, 21,21-difluoro-11β-[4′-(dimethylamino)phenyl]-17,23-epoxy-19,24-dinor-17α-chola-4,9,20-triene] | 
0.344 | COc1ccc(C2CC3(C)C(CCC34OCCC4=C(F)F)C3CCC4=CC(=O)CCC4=C23)cc1 (stereo not drawn) [Compound 1c, 21,21-difluoro-11β-(4′-methoxyphenyl)-17,23-epoxy-19,24-dinor-17α-chola-4,9,20-triene] | 
0.28 | CC12CC(c3ccc(-c4cccnc4)cc3)C3=C4CCC(=O)C=C4CCC3C1CCC21OCCC1=C(F)F (stereo not drawn) [Compound 1e, 21,21-difluoro-11β-[4′-(3′-pyridyl)phenyl]-17,23-epoxy-19,24-dinor-17α-chola-4,9,20-triene] | 
